Data from publication PMC12152147, “DDB1 engagement defines the selectivity of S656 analogs for cyclin K degradation over CDK inhibition” (EMBO Reports, 2025).
Like-named read-outs stand apart in the source and are kept apart here.

How the values were obtained:
cyclin KeGFP = assay: Cyclin KeGFP reporter system (eGFP/mCherry MFI by flow cytometry);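 also: 10 μM compound for 3 h relative to DMSO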; assay type: cell-based, H. sapiens; details: cyclin K-eGFP reporter
Procedure: We used the cyclin KeGFP reporter system previously described (Słabicki et al, [2020]). Lentiviral vector (Addgene plasmid #169930) was used to infect OCI-AML5 at a MOI of 5 and were selected with puromycin. Cells were seeded in methylcellulose and let grown as colonies for 10 days. Colonies were isolated, expanded and selected based on cyclin KeGFP fluorescence in presence and absence of cyclin K degrader molecules. Selected G7 clone was used for all reported experiments. Fluorescent signal of cyclin KeGFP and mCherry were quantified by flow cytometry (BD LSRII) in each condition and the geometric mean fluorescence intensity (MFI) were calculated using FlowJo (BD Biosciences). The ratio of eGFP to mCherry was normalized to DMSO-treated cells.

[1] = tested on: OCI-AML5 cells expressing shRNA targeting CUL4A or CUL4B; assay: Dose response in OCI-AML5 expressing shRNAs targeting CUL4A, CUL4B or control; assay type: cell-based, H. sapiens; details: ratio of IC50 in shCUL4A vs shCTRL OCI-AML5 cells
[2] = tested on: OCI-AML5 cells expressing shRNAs targeting CDK1, 2, 4, 7, 9, cyclin K; assay: Dose response in OCI-AML5 expressing shRNAs targeting CDK1, 2, 4, 7, 9, cyclin K or control; assay type: cell-based, H. sapiens; details: for class based on cellular selectivity: IC50 in shRNA OCI-AML5 cells and cyclin KeGFP degradation; for Class: class from shRNA IC50 profile and cyclin K-eGFP degradation
CDK1 = target: T1, CDK1 (Homo sapiens, UniProt P06493); assay: CDK1 in vitro kinase activity, single concentration 1 μM; assay type: biochemical; details: single concentration 1 μM
T1 construct: purchased BPS Bioscience 79597
Procedure: (§1) Kinase activity was assessed using the kinase assay kits from BPS Bioscience for CDK1, CDK9 and CDK12 with Kinase Glo MAX in duplicates. Compounds were tested at a single concentration of 1 μM for CDK1 and CDK9 activity, and in a dilution ranging from 0.64 nM to 50 μM for CDK12 activity. Chemiluminescence was read using the Neo Synergy BioTek plate reader.

OCI-AML5 cells = assay: Dose-response proliferative assay in OCI-AML5 (4 days, CellTiterGlo); assay type: cell-based, H. sapiens; details: read-out: IC50 in AML5
Procedure: Cell lines were purchased from the ATCC or donated from collaborators. OCI-AML5 cell line was cultured in αMEM, 10% heat-inactivated FBS supplemented with 10 ng/mL GM-CSF, OCI-AML1, U2OS and HEK293T cell lines in DMEM, 10% heat-inactivated FBS. Cells were maintained at 37 °C in 5% CO2 atmosphere.
Dose-response assays in primary AML specimens were performed as in chemical screen (see above) with the exception that compounds were tested in serial dilution (8 dilutions, 1:4, 10 μM down to 0.5 nM). Dose-response assays in OCI-AML5 cell line were conducted similarly with the following modifications: 300 cells per well were seeded in 50 μL of cell line media and cell viability was evaluated after 4 days in culture.

CDK9/CyclinT = target: T2, CDK9/CyclinT (Homo sapiens, UniProt P50750); assay: CDK9/CyclinT in vitro kinase activity, single concentration 1 μM; assay type: biochemical; details: single concentration 1 μM
T2 construct: purchased BPS Bioscience 79628
Procedure: as §1

[3] = Homo sapiens, OCI-AML-5, OCI-AML5 expressing shRNA CCNK (cyclin K), read-out: IC50 shRNA CCNK
[4] = Homo sapiens, OCI-AML-5, OCI-AML5 expressing shRNA CDK1, read-out: IC50 shRNA CDK1
[5] = Homo sapiens, OCI-AML-5, OCI-AML5 expressing shRNA CDK2, read-out: IC50 shRNA CDK2
[6] = Homo sapiens, OCI-AML-5, OCI-AML5 expressing shRNA CDK4, read-out: IC50 shRNA CDK4
[7] = Homo sapiens, OCI-AML-5, OCI-AML5 expressing shRNA CDK7, read-out: IC50 shRNA CDK7
[8] = Homo sapiens, OCI-AML-5, OCI-AML5 expressing shRNA CDK9, read-out: IC50 shRNA CDK9
[9] = Homo sapiens, OCI-AML-5, OCI-AML5 cells
[10] = OCI-AML5 expressing shRNA CCNK (cyclin K), read-out: IC50 shRNA CCNK
[11] = OCI-AML5 expressing shRNA CDK1, read-out: IC50 shRNA CDK1
[12] = OCI-AML5 expressing shRNA CDK2, read-out: IC50 shRNA CDK2
[13] = OCI-AML5 expressing shRNA CDK4, read-out: IC50 shRNA CDK4
[14] = OCI-AML5 expressing shRNA CDK7, read-out: IC50 shRNA CDK7
[15] = OCI-AML5 expressing shRNA CDK9, read-out: IC50 shRNA CDK9

T1 sequence (P06493 whole entry): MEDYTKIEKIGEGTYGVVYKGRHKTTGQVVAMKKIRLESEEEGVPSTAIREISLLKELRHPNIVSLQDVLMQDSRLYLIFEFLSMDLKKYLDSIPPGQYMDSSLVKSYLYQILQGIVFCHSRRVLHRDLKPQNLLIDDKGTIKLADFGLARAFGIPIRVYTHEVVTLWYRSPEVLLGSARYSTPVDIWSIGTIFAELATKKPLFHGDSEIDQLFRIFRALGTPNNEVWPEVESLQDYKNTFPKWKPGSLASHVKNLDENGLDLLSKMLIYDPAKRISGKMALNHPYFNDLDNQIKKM
T1 sequence (P14635 whole entry partner): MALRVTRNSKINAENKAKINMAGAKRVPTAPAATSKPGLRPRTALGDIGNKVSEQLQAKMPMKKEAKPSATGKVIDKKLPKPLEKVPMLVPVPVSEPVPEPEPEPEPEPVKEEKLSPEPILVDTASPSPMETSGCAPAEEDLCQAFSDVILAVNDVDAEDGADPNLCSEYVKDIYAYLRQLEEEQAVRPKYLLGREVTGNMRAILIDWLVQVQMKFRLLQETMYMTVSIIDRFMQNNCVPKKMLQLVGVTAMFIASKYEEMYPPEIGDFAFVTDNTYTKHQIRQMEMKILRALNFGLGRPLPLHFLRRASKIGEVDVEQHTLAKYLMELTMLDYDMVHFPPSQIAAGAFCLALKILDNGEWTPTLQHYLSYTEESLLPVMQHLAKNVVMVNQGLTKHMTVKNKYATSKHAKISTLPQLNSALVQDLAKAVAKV
T2 sequence (P50750 whole entry): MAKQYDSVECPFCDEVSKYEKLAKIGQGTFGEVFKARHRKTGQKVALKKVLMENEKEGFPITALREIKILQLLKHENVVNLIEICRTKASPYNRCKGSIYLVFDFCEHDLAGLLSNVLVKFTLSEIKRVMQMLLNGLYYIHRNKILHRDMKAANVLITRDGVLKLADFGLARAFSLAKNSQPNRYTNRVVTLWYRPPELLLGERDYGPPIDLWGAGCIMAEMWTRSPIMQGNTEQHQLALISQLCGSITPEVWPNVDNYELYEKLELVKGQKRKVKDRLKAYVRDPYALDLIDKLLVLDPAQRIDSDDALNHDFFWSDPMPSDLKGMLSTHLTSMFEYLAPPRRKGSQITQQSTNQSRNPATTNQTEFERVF
T2 sequence (O60563 whole entry partner): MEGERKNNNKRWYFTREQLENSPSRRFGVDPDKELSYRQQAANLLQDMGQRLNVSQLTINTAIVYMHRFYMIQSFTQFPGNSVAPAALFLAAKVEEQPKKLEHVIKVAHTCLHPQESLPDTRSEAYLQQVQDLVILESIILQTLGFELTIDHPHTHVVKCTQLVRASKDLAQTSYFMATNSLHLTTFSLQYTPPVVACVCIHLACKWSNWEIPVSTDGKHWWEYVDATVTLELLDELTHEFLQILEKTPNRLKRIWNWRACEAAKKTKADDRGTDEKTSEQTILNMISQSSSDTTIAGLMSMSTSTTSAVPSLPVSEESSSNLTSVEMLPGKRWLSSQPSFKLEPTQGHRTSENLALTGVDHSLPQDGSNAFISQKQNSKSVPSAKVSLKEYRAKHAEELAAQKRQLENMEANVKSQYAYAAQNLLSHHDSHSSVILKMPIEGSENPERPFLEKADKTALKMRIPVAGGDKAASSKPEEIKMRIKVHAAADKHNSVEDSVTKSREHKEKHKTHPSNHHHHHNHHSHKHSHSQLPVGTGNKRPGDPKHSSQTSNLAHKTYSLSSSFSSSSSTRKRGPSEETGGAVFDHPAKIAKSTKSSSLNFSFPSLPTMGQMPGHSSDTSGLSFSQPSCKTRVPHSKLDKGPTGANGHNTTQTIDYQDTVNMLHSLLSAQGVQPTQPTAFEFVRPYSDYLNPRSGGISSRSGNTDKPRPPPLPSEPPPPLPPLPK

| IC50 [2, 3] [nM] | IC50 [2, 4] [nM] | IC50 [2, 5] [nM] | IC50 [2, 6] [nM] | IC50 [2, 7] [nM] | IC50 [2, 8] [nM] | inhibition at 1 µM (CDK1) [%] | IC50 (OCI-AML5 cells; [9]) [nM] | inhibition at 1 µM (CDK9/CyclinT) [%] | SMILES | % degradation cyclin K-eGFP (cyclin KeGFP) [%] | Ratio shCUL4A/shCTRL [1] | class based on cellular selectivity [2] | Class [2] | further results |
| --- | --- | --- | --- | --- | --- | --- | --- | --- | --- | --- | --- | --- | --- | --- |
| 888 | 2240 | 2420 | 1920 | 2270 | 1690 | 37 | 1950 | 100 | O=C(Cc1coc2cc3c(cc12)CCC3)Nc1ncc(SCc2cccnc2)s1 [UOM-005479] | 76 | 1.94 | Class I (effective cyclin K MGDs (decreased IC50 in cyclin K depleted cells only, and >65% degradation of cyclin KeGFP)) | 1 |  |
| 574 | 314 | 730 | 709 | 658 | 299 | 100 | 750 | 63 | O=C(Cc1ccc(NC(=O)c2cccnc2)cc1)Nc1ncc(SCc2cccnc2)s1 [UOM-005475] | 0 | 1.05 |  | 2 |  |
| 3580 | 1350 | 2690 | 3400 | 3360 | 1810 | 59 | 2790 | 57 | O=C(Cc1ccc(F)cc1)Nc1ncc(SCc2cccnc2)s1 [UOM-005197] | 24 | 1.15 | Class II | 2 |  |
| 368 | 1080 | 1280 | 1110 | 1510 | 1020 | 87 | 1060 | 62 | O=C(Cc1ccc(I)cc1)Nc1ncc(SCc2cccnc2)s1 [UOM-005200] | 77 | 2.36 | Class I (effective cyclin K MGDs (decreased IC50 in cyclin K depleted cells only, and >65% degradation of cyclin KeGFP)) | 1 |  |
| 921 | 1280 | 2320 | 2620 | 2520 | 1490 | 63 | 2180 | 99 | [N-]=[N+]=Nc1ccc(CC(=O)Nc2ncc(SCc3cccnc3)s2)cc1 [UOM-005062] | 45 | 1.35 |  | mixed 1-2 |  |
| 785 | 700 | 1440 | 1840 | 1470 | 794 | 81 | 1330 | 65 | O=C(Cc1ccc(N2CCOCC2)cc1)Nc1ncc(SCc2cccnc2)s1 [UOM-005606] | 45 | 1.07 |  | mixed 1-2 |  |
| 78.6 | 154 | 197 | 227 | 221 | 152 | 70 | 210 | 90 | CC(=O)Nc1ccc(CC(=O)Nc2ncc(SCc3cccnc3)s2)cc1 [UOM-005473] | 67 | 2.59 |  | mixed 1-2 |  |
| 1500 | 1180 | 2940 | 2830 | 2800 | 1780 | 60 | 2560 | 100 | O=C(Cc1ccc(Br)cc1)Nc1ncc(SCc2cccnc2)s1 [UOM-005199] | 64 | 0.67 |  | mixed 1-2 |  |
|  |  |  |  |  |  |  |  |  | O=C(Cc1ccc(CNC(=O)OCC2c3ccccc3-c3ccccc32)cc1)Nc1ncc(SCc2cccnc2)s1 [UOM-005432] | 5 | 1.02 | Class II | 2 | IC50 [2, 10]: 753 nM; IC50 [2, 11]: 293 nM; IC50 [2, 12]: 886 nM; IC50 [2, 13]: 895 nM; IC50 [2, 14]: 807 nM; IC50 [2, 15]: 391 nM; % CDK1 inhibition (CDK1): 100%; IC50 (OCI-AML5 cells; OCI-AML5 cells): 840 nM; % CDK9 inhibition (CDK9/CyclinT): 62% |
| 576 | 350 | 574 | 626 | 646 | 270 | 87 | 660 | 66 | O=C(Cc1ccc(NC(=O)c2ccncc2)cc1)Nc1ncc(SCc2cccnc2)s1 [UOM-005476] | 1 | 0.87 | Class II | 2 |  |
| 135 | 502 | 544 | 509 | 578 | 369 | 70 | 361 | 67 | O=C(Cc1ccc2ccccc2c1)Nc1ncc(SCc2cccnc2)s1 [UOM-005428] | 80 | 2.81 | Class I (effective cyclin K MGDs (decreased IC50 in cyclin K depleted cells only, and >65% degradation of cyclin KeGFP)) | 1 |  |
| 1370 | 648 | 1720 | 2150 | 1400 | 743 | 43 | 1730 | 84 | CC(=O)N1CCN(c2ccc(CC(=O)Nc3ncc(SCc4cccnc4)s3)cc2)CC1 [UOM-005614] | 0 | 0.67 | Class II | 2 |  |
| 45.2 | 160 | 180 | 160 | 170 | 125 | 63 | 152 | 54 | O=C(Cc1ccc(N2CCCC2)cc1)Nc1ncc(SCc2cccnc2)s1 [UOM-005608] | 77 | 2.84 | Class I (effective cyclin K MGDs (decreased IC50 in cyclin K depleted cells only, and >65% degradation of cyclin KeGFP)) | 1 |  |
|  |  |  |  |  |  |  |  |  | CN(C)c1ccc(CC(=O)Nc2ncc(C(C)(C)C)s2)cc1 [UOM-005605] | 76 | 4.63 | Class I (effective cyclin K MGDs (decreased IC50 in cyclin K depleted cells only, and >65% degradation of cyclin KeGFP)) | 1 | IC50 [2, 10]: 341 nM; IC50 [2, 11]: 1140 nM; IC50 [2, 12]: 1140 nM; IC50 [2, 13]: 996 nM; IC50 [2, 14]: 1080 nM; IC50 [2, 15]: 968 nM; % CDK1 inhibition (CDK1): 1%; IC50 (OCI-AML5 cells; OCI-AML5 cells): 1040 nM; % CDK9 inhibition (CDK9/CyclinT): 5% |
|  |  |  |  |  |  |  |  |  | COc1ccc2cc([C@H](C)C(=O)Nc3ncc(SCc4cccnc4)s3)ccc2c1 [UOM-005431] | 78 | 2.43 |  | 1 | IC50 [2, 10]: 396 nM; IC50 [2, 11]: 1080 nM; IC50 [2, 12]: 1160 nM; IC50 [2, 13]: 979 nM; IC50 [2, 14]: 1080 nM; IC50 [2, 15]: 876 nM; % CDK1 inhibition (CDK1): 53%; IC50 (OCI-AML5 cells; OCI-AML5 cells): 895 nM; % CDK9 inhibition (CDK9/CyclinT): 78% |
